What was measured:
[1] = tested on: patients with advanced solid tumours; test: Phase I toxicity assessment (NCI-CTC version 2.0), oral XR11576 days 1–5 every 21 days; assay type: in vivo
Protocol: The total dose prescribed was rounded to the nearest 5 mg. […] Dose escalations between cohorts were based on the prior dose level's toxicity and pharmacological data, allowing a dose escalation up to 100% (which was determined by the worst significant toxicity). […] The stopping dose was defined as the dose level that induced dose-limiting toxicity (DLT) during course 1 in ⩾2/3 or ⩾2/6 patients. Dose-limiting toxicities were defined as grade 4 granulocytopenia for 7 or more days, febrile neutropenia, platelets <25.0 × 10^9 l^−1 and/or nonhaematological toxicity ⩾grade 3. Nausea and vomiting subsequently responding to antiemetic therapy were excluded from DLT. […] If a patient encountered DLT, the dose of XR11576 was decreased by one dose level at re-treatment. […] At the dose recommended for further studies, the number of patients treated could be expanded to 12. Toxicities were evaluated according to the National Cancer Institute Common Toxicity Criteria, version 2.0 (ctep.info.nih.gov/reporting/in dex.html).
Before treatment, a complete medical history was recorded and a physical examination performed. A complete blood count (CBC) including white blood cell differential and serum biochemistry, which involved sodium, potassium, calcium, urea, creatinine, uric acid, total protein, albumin, total bilirubin, alkaline phosphatase, γ-glutamyl transferase, aspartate aminotransferase, alanine aminotransferase, lactate dehydrogenase and glucose, were performed, as were urinalysis, pregnancy test, relevant tumour markers, electrocardiogram and a chest X-ray. […] Weekly evaluations included history, physical examination, toxicity assessment according to the CTC criteria version 2.0, and serum chemistries. Complete blood count was determined twice weekly. Tumour evaluation was performed after every two courses according to the Response Evaluation Criteria in Solid Tumours (RECIST) ([Therasse et al, 2000]). Patients were taken off protocol at the onset of disease progression.

[2] = dogs, cited from earlier work
[3] = design: method as in data on file, FPD 1055; conditions: ref data on file, FPD 1055; cited from earlier work
[4] = tested on: rats; conditions: 14-day oral administration schedule; cited from earlier work
[5] = orally on days 1–5 every 3 weeks

COc1cccc2c1ccc1nc3cccc(C(=O)N[C@H](C)CN(C)C)c3nc12 [XR11576, 4-methoxy-benzo[a]phenazine-11-carboxylic acid (2-dimethulamino-1-R-methyl-ethyl)-amide]
more than dose-proportionally: increase of systemic exposure with dose ([2]; single oral administration)
1 to 5 days: nausea and vomiting, range of duration ([1]; 30 mg)
5: Fatigue grade 1, worse toxicity per cycle ([1]; 120 mg day^−1, all cycles) | Fatigue grade 2, worse toxicity per cycle ([1]; 120 mg day^−1, all cycles) | Vomiting grade 2, worse toxicity per cycle ([1]; 120 mg day^−1, all cycles) | Nausea grade 1, no. of patients ([1]; 120 mg day^−1, first cycle) | Vomiting grade 2, worse toxicity per cycle ([1]; 180 mg day^−1, all cycles)
no cardiac toxicity was detected: cardiac toxicity [3]
2 days: nausea and vomiting, median duration ([1]; 30 mg)
26%: diarrhoea grade 1–2, share of cycles ([1]; all cycles)
5 days: diarrhoea, median day of onset ([1]; all dose levels)
approximately 60%: reduction in the systemic exposure ([2]; repeated daily oral doses)
180 mg/day: maximum tolerated dose (MTD) [1, 5]
three patients: patients with thrombocytopenia ([1]; limited to grade 1 and 2)
four patients: patients with grade 2 anaemia ([1]; all dose levels)
1: Diarrhoea grade 1, worse toxicity per cycle ([1]; 30 mg day^−1, all cycles) | Fatigue grade 1, worse toxicity per cycle ([1]; 30 mg day^−1, all cycles) | Fatigue grade 1, no. of patients ([1]; 30 mg day^−1, first cycle) | Fatigue grade 2, no. of patients ([1]; 30 mg day^−1, first cycle) | Diarrhoea grade 1, worse toxicity per cycle ([1]; 60 mg day^−1, all cycles) | Diarrhoea grade 1, no. of patients ([1]; 60 mg day^−1, first cycle) | Fatigue grade 1, no. of patients ([1]; 60 mg day^−1, first cycle) | Fatigue grade 3, no. of patients ([1]; 60 mg day^−1, first cycle) | Diarrhoea grade 3, worse toxicity per cycle ([1]; 120 mg day^−1, all cycles) | Fatigue grade 3, worse toxicity per cycle ([1]; 120 mg day^−1, all cycles) | Plt grade 1, worse toxicity per cycle ([1]; 120 mg day^−1, all cycles) | DLT, no. of patients ([1]; 120 mg day^−1, first cycle) | Diarrhoea grade 1, no. of patients ([1]; 120 mg day^−1, first cycle) | Diarrhoea grade 3, no. of patients ([1]; 120 mg day^−1, first cycle) | Vomiting grade 1, no. of patients ([1]; 120 mg day^−1, first cycle) | WBC grade 1, no. of patients ([1]; 120 mg day^−1, first cycle) | ANC grade 4, worse toxicity per cycle ([1]; 150 mg day^−1, all cycles) | Diarrhoea grade 1, worse toxicity per cycle ([1]; 150 mg day^−1, all cycles) | Diarrhoea grade 2, worse toxicity per cycle ([1]; 150 mg day^−1, all cycles) | Diarrhoea grade 3, worse toxicity per cycle ([1]; 150 mg day^−1, all cycles) | Plt grade 1, worse toxicity per cycle ([1]; 150 mg day^−1, all cycles) | Vomiting grade 1, worse toxicity per cycle ([1]; 150 mg day^−1, all cycles) | WBC grade 2, worse toxicity per cycle ([1]; 150 mg day^−1, all cycles) | ANC grade 4, no. of patients ([1]; 150 mg day^−1, first cycle) | DLT, no. of patients ([1]; 150 mg day^−1, first cycle) | Diarrhoea grade 1, no. of patients ([1]; 150 mg day^−1, first cycle) | Diarrhoea grade 2, no. of patients ([1]; 150 mg day^−1, first cycle) | Diarrhoea grade 3, no. of patients ([1]; 150 mg day^−1, first cycle) | Nausea grade 1, no. of patients ([1]; 150 mg day^−1, first cycle) | Plt grade 1, no. of patients ([1]; 150 mg day^−1, first cycle) | WBC grade 2, no. of patients ([1]; 150 mg day^−1, first cycle) | ANC grade 3, worse toxicity per cycle ([1]; 180 mg day^−1, all cycles) | Diarrhoea grade 1, worse toxicity per cycle ([1]; 180 mg day^−1, all cycles) | Diarrhoea grade 2, worse toxicity per cycle ([1]; 180 mg day^−1, all cycles) | Diarrhoea grade 4, worse toxicity per cycle ([1]; 180 mg day^−1, all cycles) | Fatigue grade 1, worse toxicity per cycle ([1]; 180 mg day^−1, all cycles) | Fatigue grade 2, worse toxicity per cycle ([1]; 180 mg day^−1, all cycles) | Nausea grade 2, worse toxicity per cycle ([1]; 180 mg day^−1, all cycles) | Nausea grade 3, worse toxicity per cycle ([1]; 180 mg day^−1, all cycles) | ANC grade 3, no. of patients ([1]; 180 mg day^−1, first cycle) | DLT, no. of patients ([1]; 180 mg day^−1, first cycle) | Diarrhoea grade 1, no. of patients ([1]; 180 mg day^−1, first cycle) | Diarrhoea grade 2, no. of patients ([1]; 180 mg day^−1, first cycle) | Fatigue grade 1, no. of patients ([1]; 180 mg day^−1, first cycle) | Fatigue grade 2, no. of patients ([1]; 180 mg day^−1, first cycle) | Fatigue grade 3, no. of patients ([1]; 180 mg day^−1, first cycle)
150 mg m^−2: maximum tolerated dose (MTD) [4]
No significant abnormalities: abnormalities in ECG tracings ([1]; prior to treatment and following first drug administration)
seven patients: patients with grade 1 anaemia ([1]; all dose levels)
6: Nausea grade 1, worse toxicity per cycle ([1]; 60 mg day^−1, all cycles)
diarrhoea and fatigue: dose-limiting toxicities (DLT) [1, 5]
one patient: patients who developed grade 1 alopecia ([1]; during treatment) | patients with grade 4 neutropenia ([1]; heavily pretreated patient, not complicated by fever)
1 to 15 days: diarrhoea, range of day of onset ([1]; all dose levels)
No treatment-related deaths: treatment-related deaths ([1]; in vivo)
7: Nausea grade 2, worse toxicity per cycle ([1]; 120 mg day^−1, all cycles)
two of three patients: patients in whom DLT was encountered ([1]; 180 mg day^−1 dose level)
6 days: nausea and vomiting, median duration ([1]; dose level 180 mg)
1 to 14 days: diarrhoea, range of duration ([1]; all dose levels)
3: Nausea grade 1, worse toxicity per cycle ([1]; 30 mg day^−1, all cycles) | Vomiting grade 1, worse toxicity per cycle ([1]; 30 mg day^−1, all cycles) | Nausea grade 1, no. of patients ([1]; 60 mg day^−1, first cycle) | Diarrhoea grade 1, worse toxicity per cycle ([1]; 120 mg day^−1, all cycles) | Diarrhoea grade 2, worse toxicity per cycle ([1]; 120 mg day^−1, all cycles) | Vomiting grade 1, worse toxicity per cycle ([1]; 120 mg day^−1, all cycles) | Fatigue grade 1, no. of patients ([1]; 120 mg day^−1, first cycle) | Fatigue grade 2, no. of patients ([1]; 120 mg day^−1, first cycle) | Nausea grade 2, no. of patients ([1]; 120 mg day^−1, first cycle) | Vomiting grade 2, worse toxicity per cycle ([1]; 150 mg day^−1, all cycles) | Fatigue grade 2, no. of patients ([1]; 150 mg day^−1, first cycle) | Vomiting grade 2, no. of patients ([1]; 150 mg day^−1, first cycle) | Nausea grade 1, worse toxicity per cycle ([1]; 180 mg day^−1, all cycles) | Nausea grade 1, no. of patients ([1]; 180 mg day^−1, first cycle) | Vomiting grade 2, no. of patients ([1]; 180 mg day^−1, first cycle)
2: Fatigue grade 2, worse toxicity per cycle ([1]; 30 mg day^−1, all cycles) | Nausea grade 2, worse toxicity per cycle ([1]; 30 mg day^−1, all cycles) | Nausea grade 1, no. of patients ([1]; 30 mg day^−1, first cycle) | Fatigue grade 1, worse toxicity per cycle ([1]; 60 mg day^−1, all cycles) | Fatigue grade 2, worse toxicity per cycle ([1]; 60 mg day^−1, all cycles) | Fatigue grade 3, worse toxicity per cycle ([1]; 60 mg day^−1, all cycles) | Vomiting grade 1, no. of patients ([1]; 60 mg day^−1, first cycle) | Vomiting grade 3, worse toxicity per cycle ([1]; 120 mg day^−1, all cycles) | WBC grade 1, worse toxicity per cycle ([1]; 120 mg day^−1, all cycles) | Diarrhoea grade 2, no. of patients ([1]; 120 mg day^−1, first cycle) | Vomiting grade 2, no. of patients ([1]; 120 mg day^−1, first cycle) | Vomiting grade 3, no. of patients ([1]; 120 mg day^−1, first cycle) | Nausea grade 1, worse toxicity per cycle ([1]; 150 mg day^−1, all cycles) | Nausea grade 2, worse toxicity per cycle ([1]; 150 mg day^−1, all cycles) | Nausea grade 2, no. of patients ([1]; 150 mg day^−1, first cycle) | Fatigue grade 3, worse toxicity per cycle ([1]; 180 mg day^−1, all cycles) | Plt grade 1, worse toxicity per cycle ([1]; 180 mg day^−1, all cycles) | Plt grade 1, no. of patients ([1]; 180 mg day^−1, first cycle)
1 to 20 days: nausea and vomiting, range of duration ([1]; dose level 180 mg)
120 mg/day: recommended dose for further studies ([1]; days 1–5 every 3 weeks)
8: Nausea grade 1, worse toxicity per cycle ([1]; 120 mg day^−1, all cycles)
6%: diarrhoea grade 3–4, share of cycles ([1]; all cycles)
mild: overall haematological toxicity ([1]; all dose levels)
4: Vomiting grade 1, worse toxicity per cycle ([1]; 60 mg day^−1, all cycles) | Fatigue grade 2, worse toxicity per cycle ([1]; 150 mg day^−1, all cycles)
4 days: diarrhoea, median duration ([1]; all dose levels)

Source: article PMC2409936, “Phase I and pharmacokinetic study of XR11576, an oral topoisomerase I and II inhibitor, administered on days 1–5 of a 3-weekly cycle in patients with advanced solid tumours” (British Journal of Cancer, 2004)
